Numbered stars: 1 amine (or outer) side, 2 acyl side, 3 side chain; on linkers, the order of the positions; unused ones are H or OH. Square brackets hold non-standard residues; d marks the D form. Side chains are listed from the residue outwards. Peptide text beside a SMILES is read from it. * marks the point of attachment. C18 diacid = O=C(O)CCCCCCCCCCCCCCCCC(=O)*; γGlu = O=C(O)[C@H](CCC(=O)[*:2])N[*:1]; AEEA = NCCOCCOCC(=O)O; Aib = CC(C)(N)C(=O)O
Experiments:
C57Bl/6 mice = test: Acute effects after s.c. treatment on blood glucose in an intraperitoneal glucose tolerance test (ipGTT); format: in vivo, male C57Bl/6NCrl mice; settings: for Blood glucose concentration AUC / Incremental blood glucose concentration AUCi: mean ± SEM; for Incremental blood glucose concentration AUCi: baseline corrected; for minimal effective dose for improvement of i.p. glucose tolerance: single s.c. dose, C57Bl/6NCrl mice, vs. vehicle
Description: Acute Effects after Subcutaneous (s.c.) Treatment on Blood Glucose in an Intraperitoneal (i.p.) Glucose Tolerance Test (ipGTT) in Healthy, Male C57Bl/6 Mice
Healthy, normoglycemic male C57Bl/6NCrl mice were ordered in an age of 9-10 weeks with an approximate body weight (BW) of 24-26 g at Charles River Laboratories Deutschland GmbH, 97633 Sulzfeld, Germany. Mice were shipped grouped housed (N=4 per cage), acclimatized for one week and remained grouped housed throughout the entire study. Mice were housed under vivarium conditions that included a 12 h light/dark cycle (light phase 06:00 AM-06:00 PM), mean room temperature of 22±2° C. and a relative mean humidity of 55±10%. All animals had free access to food (Ssniff R/M-H diet) and water prior to study start. At study start mice were between 10-11 weeks old.
The primary objective of the study was to investigate the compound-induced lowering of the blood glucose excursion and improvement of glucose tolerance in a mouse ipGTT setting and therefore the primary parameters included blood glucose, delta blood glucose (normalized to the time point just prior to the i.p. glucose challenge, t=0 h) and their respective calculated area under curve (AUC) values. The study was performed as an acute, single dosing study with 6 groups and the male animals were randomly divided to groups of 7-8 mice per group. Dose-dependent pharmacodynamic blood glucose lowering efficacy of the GIPR agonist was analyzed with s.c. injections 6 h before the i.p. glucose load in the dose range from 3 up to 100 nmol/kg and compared to the vehicle group as well as the semaglutide positive control at a dose of 10 nmol/kg.
In more detail, mice were fed overnight and on the following morning brought to the lab with food removed but ad libitum access to water. Blood samplings (5 μl) were performed at: −6.5, −0.5, 0, 0.17, 0.5, 1, 1.5, 2 and 3 h before and after the glucose bolus of 1 g glucose per kg BW i.p. given at time point t=0 h. On time point t=0.17 h an additional K-EDTA plasma sample from 60-80 μl blood was taken for plasma insulin analysis. Blood was withdrawn from the tip of the tail. The GIPR agonist and semaglutide were dissolved in 10 mM phosphate buffer pH 7.4 with 2.3% glycerol and 0.01% polysorbat 20 (vehicle) and s.c. treatment was performed −6 h before the glucose load (t=0 h) using an injection volume of 5 ml/kg. The injection solutions were freshly prepared prior to the experiment using sterile filtered vehicle solution. Blood glucose was determined enzymatically (Gluco-quant® Glucose/HK kit on Roche/Hitachi 912). Plasma insulin was determined using a mouse/rat insulin sandwich immunoassay kit from Meso Scale Discovery.
All data were collected using Microsoft Excel. None of the data were collected online. The results are expressed as means±standard error of the mean (SEM). As primary study parameters, blood glucose, baseline (time point t=0 h) subtracted delta blood glucose and their respective calculated area under curve (AUC) values were determined.
The statistical analysis of the ipGTT blood glucose excursion data response following subcutaneous compound or vehicle treatment was performed on the calculated AUC values of blood glucose raw data as well as the calculated AUC values for baseline subtracted delta blood glucose data. In a first step the Levene's test was used to test for equality of variances between groups. […] Where Levene's test was not significant (p>0.05) ANOVA was conducted without prior rank transformation. In a second step a One-way ANOVA analysis for factor treatment followed by Dunnett's multiple comparisons test vs. vehicle group was used to test for statistical differences. All analyses were performed using SAS (version 9.4) under Linux via the interface software EverSt@t V6.1.
Male C57Bl/6NCrl mice were fed overnight and on the following morning brought to the lab with food removed but adlibitum access to water. […]

[1] = Pharmacokinetic evaluation in minipigs; format: in vivo; settings: female, Göttingen, minipig, plasma
Description: Compounds were administered in a suitable buffer system, e.g. PBS buffer solution at pH7.4 or DPBS solution at concentrations of 0.05, 0.1, 0.5 or 1 mg/ml depending on dose, species and administration volume.
Female Göttingen minipigs were dosed 0.05 mg/kg intravenously (i.v.) or 0.1 mg/kg subcutaneously (s.c.). Blood samples were collected at 0 h and after 0.083, 0.25, 0.5, 1, 2, 4, 8, 24, 32, 48, 56, 72, 80, and 96 h post i.v. application and at 0 h and after 0.25, 0.5, 1, 2, 4, 8, 24, 32, 48, 56, 72, 80, and 96 h post s.c. application, respectively. Plasma samples were analysed after protein precipitation via liquid chromatography mass spectrometry (LC/MS). PK parameters and half-life were calculated using Phoenix-WinNonlin 8.1 using a non-compartmental model and linear trapezoidal interpolation calculation.
Pharmacokinetic profiles were determined as described in Methods.

In the case of `CC[C@H](C)[C@H](NC(=O)[C@H](CCCNC(=N)N)NC(=O)[C@H](CC(=O)O)NC(=O)[C@H](CCCCNC(=O)COCCOCCNC(=O)COCCOCCNC(=O)CC[C@H](NC(=O)CCCCCCCCCCCCCCCCC(=O)O)C(=O)O)NC(=O)C(C)(C)NC(=O)[C@@H](NC(=O)[C@H](CO)NC(=O)[C@H](CC(C)C)NC(=O)[C@H](CC(=O)O)NC(=O)[C@H](CO)NC(=O)[C@@H](NC(=O)[C@H](Cc1ccccc1)NC(=O)[C@@H](NC(=O)CNC(=O)[C@H](CCC(=O)O)NC(=O)C(C)(C)NC(=O)[C@@H](N)Cc1ccc(O)cc1)[C@@H](C)O)[C@@H](C)CC)[C@@H](C)CC)C(=O)N[C@@H](Cc1c[nH]cn1)C(=O)N[C@@H](CCC(N)=O)C(=O)NC(C)(C)C(=O)N[C@@H](CCC(=O)O)C(=O)N[C@@H](Cc1ccccc1)C(=O)N[C@H](C(=O)N[C@@H](CCC(=O)O)C(=O)N[C@@H](Cc1c[nH]c2ccccc12)C(=O)N[C@@H](CC(C)C)C(=O)N[C@@H](CC(C)C)C(=O)N[C@@H](C)C(=O)N[C@@H](CCC(N)=O)C(=O)N[C@@H](CCCNC(=N)N)C(=O)NCC(N)=O)[C@@H](C)CC` [SEQ ID NO: 6, H2N-Y-Aib-E-G-T-F-I-S-D-L-S-I-Aib-K[{AEEA}2-gGlu-C18OH]-D-R-I-H-Q-Aib-E-F-I-E-W-L-L-A-Q-R-G-NH2], the “Blood glucose concentration AUC” value (C57Bl/6 mice; Example 13 study, 3 nmol/kg s.c. 6 h before i.p. glucose, vehicle 23.20) is reported as “+21.51 ± 0.580 mmol/L* 0-2 h”, the “Incremental blood glucose concentration AUCi” value (C57Bl/6 mice; Example 13 study, 3 nmol/kg s.c., vehicle 5.50) is reported as “+3.85 ± 0.438 mmol/L* 0-2 h” and the “Blood glucose concentration AUC” value (C57Bl/6 mice; Example 13 study, 10 nmol/kg s.c. 6 h before i.p. glucose, vehicle 23.20) is reported as “+19.37 ± 0.309 mmol/L* 0-2 h”. For the same molecule, the “Incremental blood glucose concentration AUCi” value (C57Bl/6 mice; Example 13 study, 10 nmol/kg s.c., vehicle 5.50) was “+3.84 ± 0.240 mmol/L* 0-2 h”, the “Blood glucose concentration AUC” value (C57Bl/6 mice; Example 13 study, 30 nmol/kg s.c. 6 h before i.p. glucose, vehicle 23.20) was “+17.22 ± 0.453 mmol/L* 0-2 h” and the “Incremental blood glucose concentration AUCi” value (C57Bl/6 mice; Example 13 study, 30 nmol/kg s.c., vehicle 5.50) was “+2.87 ± 0.382 mmol/L* 0-2 h”. For the same molecule, the “Blood glucose concentration AUC” value (C57Bl/6 mice; Example 13 study, 100 nmol/kg s.c. 6 h before i.p. glucose, vehicle 23.20) was “+15.35 ± 0.308 mmol/L* 0-2 h”, the “Incremental blood glucose concentration AUCi” value (C57Bl/6 mice; Example 13 study, 100 nmol/kg s.c., vehicle 5.50) was “+1.21 ± 0.361 mmol/L* 0-2 h” and the “minimal effective dose for improvement of i.p. glucose tolerance” value (C57Bl/6 mice) was 10 to 30 nmol/kg.
With `CC[C@H](C)[C@H](NC(=O)[C@H](Cc1ccccc1)NC(=O)[C@H](CCC(=O)O)NC(=O)[C@H](CCC(=O)O)NC(=O)[C@H](CCC(N)=O)NC(=O)[C@H](Cc1c[nH]cn1)NC(=O)[C@@H](NC(=O)[C@H](CCCNC(=N)N)NC(=O)[C@H](CC(=O)O)NC(=O)[C@H](CCCCNC(=O)COCCOCCNC(=O)COCCOCCNC(=O)CC[C@H](NC(=O)CCCCCCCCCCCCCCCCC(=O)O)C(=O)O)NC(=O)C(C)(C)NC(=O)[C@@H](NC(=O)[C@H](CO)NC(=O)[C@H](CC(C)C)NC(=O)[C@H](CC(=O)O)NC(=O)[C@H](CO)NC(=O)[C@@H](NC(=O)[C@H](Cc1ccccc1)NC(=O)[C@@H](NC(=O)CNC(=O)[C@H](CCC(=O)O)NC(=O)C(C)(C)NC(=O)[C@@H](N)Cc1ccc(O)cc1)[C@@H](C)O)[C@@H](C)CC)[C@@H](C)CC)[C@@H](C)CC)C(=O)N[C@@H](CCC(N)=O)C(=O)N[C@@H](Cc1c[nH]c2ccccc12)C(=O)N[C@@H](CC(C)C)C(=O)N[C@@H](CC(C)C)C(=O)N[C@@H](C)C(=O)N[C@@H](CCC(N)=O)C(=O)NCC(=O)N1CCC[C@H]1C(=O)N[C@@H](CO)C(=O)N[C@@H](CO)C(=O)NCC(=O)N[C@@H](C)C(=O)N1CCC[C@H]1C(=O)N1CCC[C@H]1C(=O)N1CCC[C@H]1C(=O)N[C@@H](CO)C(N)=O` [SEQ ID NO: 35, H2N-Y-Aib-E-G-T-F-I-S-D-L-S-I-Aib-K[{AEEA}2-gGlu-C18OH]-DRIHQEEFIQWLLAQGPSSGAPPPS-NH2] (H-Y[Aib]EGTFISDLSI[Aib]K([AEEA-AEEA-γGlu-C18 diacid])DRIHQEEFIQWLLAQGPSSGAPPPS-NH2) the “Blood glucose concentration AUC” value (C57Bl/6 mice; Example 14 study, 3 nmol/kg s.c. 6 h before i.p. glucose, vehicle 24.44) was “+24.41 ± 0.743 mmol/L* 0-2 h”, the “Incremental blood glucose concentration AUCi” value (C57Bl/6 mice; Example 14 study, 3 nmol/kg s.c., vehicle 5.22) was “+5.57 ± 0.454 mmol/L* 0-2 h” and the “Blood glucose concentration AUC” value (C57Bl/6 mice; Example 14 study, 10 nmol/kg s.c. 6 h before i.p. glucose, vehicle 24.44) was “+20.67 ± 0.516 mmol/L* 0-2 h”. For the same molecule, the “Incremental blood glucose concentration AUCi” value (C57Bl/6 mice; Example 14 study, 10 nmol/kg s.c., vehicle 5.22) was “+5.05 ± 0.432 mmol/L* 0-2 h”, the “Blood glucose concentration AUC” value (C57Bl/6 mice; Example 14 study, 30 nmol/kg s.c. 6 h before i.p. glucose, vehicle 24.44) was “+18.45 ± 0.308 mmol/L* 0-2 h” and the “Incremental blood glucose concentration AUCi” value (C57Bl/6 mice; Example 14 study, 30 nmol/kg s.c., vehicle 5.22) was “+3.03 ± 0.225 mmol/L* 0-2 h”. The “Blood glucose concentration AUC” value (C57Bl/6 mice; Example 14 study, 100 nmol/kg s.c. 6 h before i.p. glucose, vehicle 24.44) was “+15.17 ± 0.452 mmol/L* 0-2 h”, the “Incremental blood glucose concentration AUCi” value (C57Bl/6 mice; Example 14 study, 100 nmol/kg s.c., vehicle 5.22) was “+1.76 ± 0.222 mmol/L* 0-2 h” and the “minimal effective dose for improvement of i.p. glucose tolerance” value (C57Bl/6 mice) was 10 to 30 nmol/kg.
Molecule `CC[C@H](C)[C@H](NC(=O)[C@H](CCC(=O)O)NC(=O)[C@H](CCC(=O)O)NC(=O)[C@H](CCCCNC(=O)COCCOCCNC(=O)COCCOCCNC(=O)CC[C@H](NC(=O)CCCCCCCCCCCCCCCCC(=O)O)C(=O)O)NC(=O)C(C)(C)NC(=O)[C@@H](NC(=O)[C@H](CO)NC(=O)[C@H](CC(C)C)NC(=O)[C@H](CC(=O)O)NC(=O)[C@H](CO)NC(=O)[C@@H](NC(=O)[C@H](Cc1ccccc1)NC(=O)[C@@H](NC(=O)CNC(=O)[C@H](CCC(=O)O)NC(=O)C(C)(C)NC(=O)[C@@H](N)Cc1ccc(O)cc1)[C@@H](C)O)[C@@H](C)CC)[C@@H](C)CC)C(=O)N[C@@H](Cc1c[nH]cn1)C(=O)N[C@@H](CCC(N)=O)C(=O)NC(C)(C)C(=O)N[C@@H](CCC(=O)O)C(=O)N[C@@H](Cc1ccccc1)C(=O)N[C@H](C(=O)N[C@@H](CCC(=O)O)C(=O)N[C@@H](Cc1c[nH]c2ccccc12)C(=O)N[C@@H](CC(C)C)C(=O)N[C@@H](CC(C)C)C(=O)N[C@@H](C)C(=O)N[C@@H](CCC(N)=O)C(=O)NCC(=O)N1CCC[C@H]1C(=O)N[C@@H](CO)C(=O)N[C@@H](CO)C(=O)NCC(=O)N[C@@H](C)C(=O)N1CCC[C@H]1C(=O)N1CCC[C@H]1C(=O)N1CCC[C@H]1C(=O)N[C@@H](CO)C(N)=O)[C@@H](C)CC` [SEQ ID NO: 19, H2N-Y-Aib-E-G-T-F-I-S-D-L-S-I-Aib-K[{AEEA}2-gGlu-C18OH]-E-E-I-H-Q-Aib-E-F-I-E-W-L-L-A-Q-G-P-S-S-G-A-P-P-P-S-NH2] (H-Y[Aib]EGTFISDLSI[Aib]K([AEEA-AEEA-γGlu-C18 diacid])EEIHQ[Aib]EFIEWLLAQGPSSGAPPPS-NH2) has an AUC(0-t) ([1]; iv, 0.05 mg/kg i.v.) of 50500 ng·h/mL, a Cmax ([1]; iv, 0.05 mg/kg i.v.) of 1980 ng/mL and a clearance ([1]; iv, 0.05 mg/kg i.v.) of 15.4 mL/day/kg. It also gave a half-life ([1]; iv, 0.05 mg/kg i.v.) of 64.1 h, an AUC(0-t) ([1]; sc, 0.1 mg/kg s.c.) of 56800 ng·h/mL and a Cmax ([1]; sc, 0.1 mg/kg s.c.) of 723 ng/mL. The bioavailability ([1]; sc, 0.1 mg/kg s.c.) was 56%.
